Data as given in publication PMC9886266, “New [1,2,4]triazolo[4,3-c]quinazolines as intercalative Topo II inhibitors: Design, synthesis, biological evaluation, and in silico studies” (PLOS ONE, 2023).

System: HepG2 cell line
Assay: MTT anti-proliferative assay, HepG2
Format: cell-based
Conditions: Homo sapiens, 48 h, three independent experiments, read-out: In vitro cytotoxicity IC50, HepG2
Method: In vitro antiproliferative activities of the target molecules were assessed against two human cancer cell lines namely, hepatocellular carcinoma (HepG2) and colorectal carcinoma (HCT-116) using MTT assay.
The anti-proliferative activity of the synthesized compounds was assessed using MTT assay protocol. A panel of human cancer cell lines namely, colorectal carcinoma (HCT-116) and hepatocellular carcinoma (HepG2) was used in this test. Doxorubicin was used as a positive control. The cell lines were got from ATCC (American Type Culture Collection) via the Holding company for biological products and vaccines (VACSERA, Cairo, Egypt). The anti-proliferative activities of the tested compounds were determined quantitatively as follows:
At first, the cells were cultured into a medium of RPMI-1640 with 10% fetal bovine serum. Then, two different antibiotics were added at 37°C in a 5% CO2 incubator: penicillin (100 units/mL) and streptomycin (100 μg/mL). Next, we seeded the cells in a 96-well plate by a density of 1.0 x 10^4 cells / well at 37°C for 48 h under 5% CO2. The synthesized compounds with different concentrations were applied into the cell lines and incubated for 48 h. After 48 h, 20 μl of MTT solution (5mg/mL) was added and incubated for 4 h. Then, DMSO (100 μl) was added into each well to dissolve the formed purple formazan. After that, a colorimetric assay was measured and recorded at absorbance of 570 nm using a plate reader (EXL 800, USA). The relative cell viability in percentage was calculated as (A570 of treated samples/A570 of untreated sample) X 100.
S2: Biological evaluation
S2.1. In vitro cytotoxic activity
The anti-proliferative activity of the synthesized compounds was assessed using MTT assay protocol. A panel of human cancer cell lines namely, colorectal carcinoma (HCT-116) and hepatocellular carcinoma (HepG2) was used in this test. As we targeted the DNA and Topo […]
cell lines were got from ATCC (American Type Culture Collection) via the Holding company for biological products and vaccines (VACSERA, Cairo, Egypt). The anti -proliferative activities of the tested compounds were determined quantitatively as follows:
At first, the cells were cultured into a medium of RPMI-1640 with 10% fetal bovine serum.
Then, two different antibiotics were added at 37 ᵒC in a 5% CO2 incubator: penicillin (100 units/mL) and streptomycin (100 µg/mL). Next, we seeded the cells in a 96 -well plate by a density of 1.0 x 10^4 cells / well at 37 ᵒC for 48 h under 5% CO2. The synthesized compounds with different concentrations were applied into the cell lines and incubated for 48 h. After 48 h, 20 µl of MTT solution (5mg/mL) was added and incubated for 4 h. Then, DMSO (100 µl) was added into each well to dissolve the formed purple formazan. After that, a colorimetric assay was measured and recorded at absorbance of 570 nm using a plate reader (EXL 800, USA). The relative cell viability in percentage was calculated as (A570 of treated samples/A570 of untreated sample) X 100. […]

How did the IC50 turn out when `CCCNc1nc2ccccc2c2nnc(C(F)(F)F)n12` [Compound 16, N-Propyl-3-(trifluoromethyl)-[1,2,4]triazolo[4,3-c]quinazolin-5-amine] was run?
The IC50 was 6.29 ± 0.3 µM.
